# Experimental data as given in US20250243196A1, “CITRON KINASE INHIBITORS” (The Cleveland Clinic Foundation, priority 2021, published 2025).
# Biological target: Citron kinase (Homo sapiens (Human), UniProt O14578)
# Assay: Radiometric citron kinase assay (Eurofins Cat #16-040KP)
# Assay type: biochemical
# Conditions: mean of at least two independent assays; read-out: Radiometric CitK IC50
# Description: In some embodiments, the step of contacting the sample with the compound comprises administering the compound to a subject (e.g., a subject) suffering from cancer. Methods of determining kinase inhibition are well known in the art. For example, kinase activity of an enzyme and the inhibitory capacity of a test compound can be determined by measuring enzyme specific phosphorylation of a substrate. Commercial assays and kits can be employed. For example, kinase inhibition can be determined using a radiometric binding assay, such as using KinaseProfiler™ technology (Eurofins Discovery). This assay method directly detects product formation without the use of modified substrates or coupling enzymes. Test compounds are incubated with kinase, substrate, required cofactors and radioisotope labeled ATP. Following incubation, unreacted radioactive ATP is removed by washing and incorporation of the radiolabeled phosphate into the kinase substrate is assayed to detect phosphoryltransferase activity, which is directly proportional to the amount of phosphorylated substrate. Inhibition of the kinase by a kinase inhibitor prevents phosphorylation of the substrate and thereby limits the incorporation of radiolabeled phosphate. Such an assay is compatible with a microwell assay format, allowing simultaneous determination of IC50 of multiple compounds.
# Compounds were screened for biochemical kinase activity (Eurofins Discovery, France) using one of two assays. […] All values in Table 1 are the mean of at least two independent assays.
# Citron kinase, sequence (O14578 whole entry): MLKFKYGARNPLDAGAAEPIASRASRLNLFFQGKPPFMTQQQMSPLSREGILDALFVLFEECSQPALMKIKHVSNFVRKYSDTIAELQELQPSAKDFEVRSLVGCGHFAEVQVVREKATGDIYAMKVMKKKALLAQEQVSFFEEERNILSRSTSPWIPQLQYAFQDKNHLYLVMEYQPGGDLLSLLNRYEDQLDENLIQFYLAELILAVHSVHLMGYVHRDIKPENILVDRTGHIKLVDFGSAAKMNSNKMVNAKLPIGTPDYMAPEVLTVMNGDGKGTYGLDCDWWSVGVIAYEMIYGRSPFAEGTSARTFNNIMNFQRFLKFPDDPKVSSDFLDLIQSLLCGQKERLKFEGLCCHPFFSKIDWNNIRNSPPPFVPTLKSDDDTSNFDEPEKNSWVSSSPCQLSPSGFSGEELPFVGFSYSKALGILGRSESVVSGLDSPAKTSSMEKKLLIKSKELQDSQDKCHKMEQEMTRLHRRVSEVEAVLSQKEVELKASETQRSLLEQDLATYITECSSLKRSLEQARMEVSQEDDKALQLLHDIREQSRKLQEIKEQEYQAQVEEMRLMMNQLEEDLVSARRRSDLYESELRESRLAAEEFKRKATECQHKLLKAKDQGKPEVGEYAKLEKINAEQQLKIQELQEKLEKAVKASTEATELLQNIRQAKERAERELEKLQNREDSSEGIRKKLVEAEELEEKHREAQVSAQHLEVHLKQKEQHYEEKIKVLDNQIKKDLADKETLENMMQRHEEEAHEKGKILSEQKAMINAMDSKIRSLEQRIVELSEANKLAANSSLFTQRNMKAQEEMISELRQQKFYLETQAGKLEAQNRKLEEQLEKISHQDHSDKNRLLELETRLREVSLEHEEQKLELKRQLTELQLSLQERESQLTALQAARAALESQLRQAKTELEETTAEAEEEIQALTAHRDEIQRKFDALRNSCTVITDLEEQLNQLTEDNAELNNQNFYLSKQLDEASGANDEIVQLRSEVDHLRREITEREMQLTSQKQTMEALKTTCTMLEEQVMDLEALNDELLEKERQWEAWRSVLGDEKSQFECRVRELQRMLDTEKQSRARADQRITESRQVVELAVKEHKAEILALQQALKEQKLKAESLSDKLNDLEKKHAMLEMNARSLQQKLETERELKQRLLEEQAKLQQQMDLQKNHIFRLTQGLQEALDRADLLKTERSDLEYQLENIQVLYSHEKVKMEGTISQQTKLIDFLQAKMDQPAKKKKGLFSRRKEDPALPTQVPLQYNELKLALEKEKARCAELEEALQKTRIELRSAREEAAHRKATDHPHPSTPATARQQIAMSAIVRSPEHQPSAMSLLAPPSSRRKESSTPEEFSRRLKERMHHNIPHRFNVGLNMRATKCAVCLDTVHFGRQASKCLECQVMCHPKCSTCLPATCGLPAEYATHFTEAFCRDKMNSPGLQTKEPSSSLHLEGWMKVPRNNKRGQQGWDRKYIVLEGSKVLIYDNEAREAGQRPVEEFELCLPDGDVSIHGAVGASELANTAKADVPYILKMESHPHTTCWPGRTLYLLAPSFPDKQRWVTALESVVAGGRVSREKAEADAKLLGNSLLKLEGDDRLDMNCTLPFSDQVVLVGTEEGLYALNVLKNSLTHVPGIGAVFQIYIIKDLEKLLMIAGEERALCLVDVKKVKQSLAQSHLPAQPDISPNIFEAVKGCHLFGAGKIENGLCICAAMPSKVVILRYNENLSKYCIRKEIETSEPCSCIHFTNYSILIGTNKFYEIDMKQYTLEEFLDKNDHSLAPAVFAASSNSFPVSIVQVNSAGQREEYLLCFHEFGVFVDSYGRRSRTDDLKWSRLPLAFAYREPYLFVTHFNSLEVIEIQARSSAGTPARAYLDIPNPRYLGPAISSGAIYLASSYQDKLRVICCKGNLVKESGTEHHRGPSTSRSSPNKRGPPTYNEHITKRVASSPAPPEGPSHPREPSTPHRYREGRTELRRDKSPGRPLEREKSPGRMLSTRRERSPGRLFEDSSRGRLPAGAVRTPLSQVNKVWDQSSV
row,Structure (SMILES),IC50
1,"CNCC(=O)Nc1ccc(-c2ccnc3[nH]ccc23)cc1 [Compound F-2, N-(4-(1H-pyrrolo[2,3-b]pyridin-4-yl)phenyl)-2-(methylamino)acetamide]",728 nM
2,"CN(C)CC(=O)Nc1ccc(-c2ccnc3[nH]ccc23)cc1 [Compound F-3, 2-(Dimethylamino)-N-[4-(1H-pyrrolo[2,3-b]pyridin-4-yl)phenyl]acetamide]",1060 nM
3,"C[C@H](N)C(=O)Nc1ccc(-c2ccnc3[nH]ccc23)cc1 [Compound F-4, (2S)-2-Amino-N-[4-(1H-pyrrolo[2,3-b]pyridin-4-yl)phenyl]propenamide]",3000 nM
4,"C[C@@H](N)C(=O)Nc1ccc(-c2ccnc3[nH]ccc23)cc1 [Compound F-5, (2R)-2-Amino-N-[4-(1H-pyrrolo[2,3-b]pyridin-4-yl)phenyl]propenamide]",806 nM
5,"CC[C@H](C)[C@H](N)C(=O)Nc1ccc(-c2ccnc3[nH]ccc23)cc1 [Compound F-10, (2S,3S)-2-Amino-3-methyl-N-[4-(1H-pyrrolo[2,3-b]pyridin-4-yl)phenyl]pentanamide]",91.9 nM
6,"CC[C@@H](C)[C@@H](N)C(=O)Nc1ccc(-c2ccnc3[nH]ccc23)cc1 [Compound F-11, (2R,3R)-2-Amino-3-methyl-N-[4-(1H-pyrrolo[2,3-b]pyridin-4-yl)phenyl]pentanamide]",315 nM
7,"NC(CC(F)(F)F)C(=O)Nc1ccc(-c2ccnc3[nH]ccc23)cc1 (centres unmarked) [Compound F-22, 2-Amino-4,4,4-trifluoro-N-[4-(1H-pyrrolo[2,3-b]pyridin-4-yl)phenyl]butanamide]",554 nM
8,"NC(C(=O)Nc1ccc(-c2ccnc3[nH]ccc23)cc1)C1(C(F)(F)F)CC1 (centres unmarked) [Compound F-23, 2-Amino-N-[4-(1H-pyrrolo[2,3-b]pyridin-4-yl)phenyl]-2-[1-(trifluoromethyl)cyclopropyl]acetamide]",172 nM
9,"N[C@H](CCC(F)(F)F)C(=O)Nc1ccc(-c2ccnc3[nH]ccc23)cc1 [Compound F-24, (2R)-2-Amino-5,5,5-trifluoro-N-[4-(1H-pyrrolo[2,3-b]pyridin-4-yl)phenyl]pentanamide]",66.7 nM
10,"COCCC(N)C(=O)Nc1ccc(-c2ccnc3[nH]ccc23)cc1 (centres unmarked) [Compound F-26, 2-Amino-4-methoxy-N-[4-(1H-pyrrolo[2,3-b]pyridin-4-yl)phenyl]butanamide]",2470 nM
11,"CCN[C@H](CC(C)C)C(=O)Nc1ccc(-c2ccnc3[nH]ccc23)cc1 [Compound F-43, (2R)-2-(Ethylamino)-4-methyl-N-[4-(1H-pyrrolo[2,3-b]pyridin-4-yl)phenyl]pentanamide]",209 nM
12,"CC(C)C[C@@H](NC1CC1)C(=O)Nc1ccc(-c2ccnc3[nH]ccc23)cc1 [Compound F-44, (2R)-2-(Cyclopropylamino)-4-methyl-N-[4-(1H-pyrrolo[2,3-b]pyridin-4-yl)phenyl]pentanamide]",555 nM
13,"CC(C)C[C@@H](NCC1CC1)C(=O)Nc1ccc(-c2ccnc3[nH]ccc23)cc1 [Compound F-45, (2R)-2-(Cyclopropymethylamino)-4-methyl-N-[4-[1H-pyrrolo[2,3-b]pyridin-4-yl]phenyl]pentanamide]",683 nM
14,"COCCN[C@H](CC(C)C)C(=O)Nc1ccc(-c2ccnc3[nH]ccc23)cc1 [Compound F-46, (2R)-2-(2-Methoxyethylamino)-4-methyl-N-[4-(1H-pyrrolo[2,3-b]pyridin-4-yl)phenyl]pentanamide]",1260 nM
15,"CC(C)C[C@@H](NCC(F)(F)F)C(=O)Nc1ccc(-c2ccnc3[nH]ccc23)cc1 [Compound F-47, (2R)-4-Methyl-N-[4-(1H-pyrrolo[2,3-b]pyridin-4-yl)phenyl]-2-(2,2,2-trifluoroethylamino)pentanamide]",3000 nM
16,"Cc1cc2c(-c3ccc(NC(=O)[C@H](N)CC(C)(C)C)cc3)ccnc2[nH]1 [Compound F-52, (2R)-2-Amino-4,4-dimethyl-N-[4-(2-methyl-1H-pyrrolo[2,3-b]pyridin-4-yl)phenyl]pentanamide]",9.1 nM

# Next, values leading:
row,IC50,Structure (SMILES)
1,69.6 nM,"CCC[C@@H](N)C(=O)Nc1ccc(-c2ccnc3[nH]ccc23)cc1 [Compound F-14, (2R)-2-Amino-N-[4-(1H-pyrrolo[2,3-b]pyridin-4-yl)phenyl]pentanamide]"
2,778 nM,"CC(O)[C@H](N)C(=O)Nc1ccc(-c2ccnc3[nH]ccc23)cc1 (stereo partly drawn) [Compound F-29, (2S)-2-Amino-3-hydroxy-N-[4-(1H-pyrrolo[2,3-b]pyridin-4-yl)phenyl]butanamide]"
3,218 nM,"CC(O)[C@@H](N)C(=O)Nc1ccc(-c2ccnc3[nH]ccc23)cc1 (stereo partly drawn) [Compound F-30, (2R)-2-Amino-3-hydroxy-N-[4-(1H-pyrrolo[2,3-b]pyridin-4-yl)phenyl]butanamide]"
4,52.4 nM,"CC(C)(O)[C@@H](N)C(=O)Nc1ccc(-c2ccnc3[nH]ccc23)cc1 [Compound F-31, (2R)-2-Amino-3-hydroxy-3-methyl-N-[4-(1H-pyrrolo[2,3-b]pyridin-4-yl)phenyl]butanamide]"
5,59 nM,"Cc1cc2c(-c3ccc(NC(=O)[C@H](N)C(C)(C)C)cc3)ccnc2[nH]1 [Compound F-50, (2R)-2-Amino-3,3-dimethyl-N-[4-(2-methyl-1H-pyrrolo[2,3-b]pyridin-4-yl)phenyl]butanamide]"
6,366 nM,"Cc1cc2c(-c3ccc(NC(=O)[C@@H](N)C(C)(C)C)cc3)ccnc2[nH]1 [Compound F-51, (2S)-2-Amino-3,3-dimethyl-N-[4-(2-methyl-1H-pyrrolo[2,3-b]pyridin-4-yl)phenyl]butanamide]"
7,35.1 nM,"CC(C)(C)[C@@H](N)C(=O)Nc1ccc(-c2ccnc3[nH]c(C4CC4)cc23)cc1 [Compound F-54, (2R)-2-Amino-N-[4-(2-cyclopropyl-1H-pyrrolo[2,3-b]pyridin-4-yl)phenyl]-3,3-dimethyl-butanamide]"
8,108 nM,"CC(C)(C)[C@@H](N)C(=O)Nc1ccc(-c2ccnc3[nH]c(C(F)(F)F)cc23)cc1 [Compound F-56, (2R)-2-Amino-3,3-dimethyl-N-[4-[2-(trifluoromethyl)-1H-pyrrolo[2,3-b]pyridin-4-yl]phenyl]butanamide]"
9,7.8 nM,"Cc1cc(NC(=O)[C@H](N)CC(C)(C)C)ccc1-c1ccnc2[nH]ccc12 [Compound F-60, (2R)-2-Amino-4,4-dimethyl-N-[3-methyl-4-(1H-pyrrolo[2,3-b]pyridin-4-yl)phenyl]pentanamide]"
10,57.7 nM,"CC(C)(C)[C@@H](N)C(=O)Nc1ccc(-c2ccnc3[nH]ccc23)c(F)c1 [Compound F-66, (2R)-2-Amino-N-[3-fluoro-4-(1H-pyrrolo[2,3-b]pyridin-4-yl)phenyl]-3,3-dimethyl-butanamide]"
11,64.6 nM,"CC(C)(C)[C@@H](N)C(=O)Nc1ccc(-c2ccnc3[nH]ccc23)cc1F [Compound F-71, (2R)-2-Amino-N-[2-fluoro-4-(1H-pyrrolo[2,3-b]pyridin-4-yl)phenyl]-3,3-dimethyl-butanamide]"
12,17 nM,"Cc1c(-c2ccnc3[nH]ccc23)ccc(NC(=O)[C@H](N)CC(C)C)c1F [Compound F-72, (2R)-2-Amino-N-[2-fluoro-3-methyl-4-(1H-pyrrolo[2,3-b]pyridin-4-yl)phenyl]-4-methyl-pentanamide]"
13,694 nM,"Cc1cc(NC(=O)[C@H](N)CC(C)C)c(F)cc1-c1ccnc2[nH]ccc12 [Compound F-73, (2R)-2-Amino-N-[2-fluoro-5-methyl-4-(1H-pyrrolo[2,3-b]pyridin-4-yl)phenyl]-4-methyl-pentanamide]"
